Our source for the inhibition and IC50 values is EP1149106B1, “4,5-AZOLO-OXINDOLES” (F. HOFFMANN-LA ROCHE AG, priority 1998, dated 2000).

One test addresses T1, Cyclin E/CDK2 (Homo sapiens, UniProt P24941).
T1 construct: made in house; host or cells: insect cells
Nature of the test: CDK2 FlashPlate Assay (Rb phosphorylation, 33P-ATP). The format is biochemical. As to conditions: Concentration 0.5 µM. On the procedure: To determine inhibition of CDK2 activity, purified recombinant retinoblastoma (Rb) protein was coated on 96 well FlashPlates (New England Nuclear, Boston, MA). Rb is a natural substrate for phosphorylation by CDK2 (Herwig and Strauss Eurr. J. Biochem., Vol. 246 (1997) pp. 581-601 and references therein). Recombinant active human Cyclin E/CDK2 complexes were partially purified from extracts of insect cells. The active Cyclin E/CDK2 was added to the Rb-coated FlashPlates along with ^33P-ATP and dilutions of test compounds. Plates were incubated for 25 minutes at room temperature with shaking, then washed and counted in the Topcount scintillation counter (Packard Instrument Co., Downers Grove, IL). Dilutions of test compounds were tested in duplicate in each assay. The percent inhibition of Rb phosphorylation, which is a measure of the inhibition of CDK2 activity, was determined according to the following formula: [formula] where "test compound" refers to the average counts per minute of the test duplicates, "nonspecific" refers to the average counts per minute when no Cyclin E/CDK2 was added, and "total" refers to the average counts per minute when no compound was added.
`COc1cc[nH]c1/C=C1\C(=O)Nc2ccc3[nH]c(Nc4cccc(C(C)=O)c4)nc3c21` [BB, (Z)-2-[N-(3-Acetylphenyl)amino]-8-[(3-methoxy-1H-pyrrol-2-yl)methylene]-3,6,7,8-tetrahydro-pyrrolo[3,2-e]benzimidazol-7-one]: the inhibition at 0.5 µM was under 50%.
`CCOC(=O)c1ccc(Nc2nc3c4c(ccc3[nH]2)NC(=O)/C4=C\c2[nH]ccc2OC)cc1` [CC, (Z)-4-[[8-[(3-Methoxy-1H-pyrrol-2-yl)methylene]-7-oxo-3,6,7,8-tetrahydro-imidazo[4,5-e]indol-2-yl]amino]-benzoic acid ethyl ester] yielded an inhibition at 0.5 µM of under 50%.
On the same count and under the same terms, in the case of `COC(=O)c1ccc(Nc2nc3c4c(ccc3[nH]2)NC(=O)/C4=C\c2[nH]ccc2OC)cc1` [EE, (Z)-4-[[8-[(3-Methoxy-1H-pyrrol-2-yl)methylene]-7-oxo-3,6,7,8-tetrahydro-imidazo[4,5-e]indol-2-yl]amino]-benzoic acid methyl ester] it was under 50%.
On the same count and under the same terms, in the case of `COc1ccc(CCNc2nc3c4c(ccc3[nH]2)NC(=O)/C4=C\c2[nH]ccc2OC)cc1OC` [GG, (Z)-2-[N-[2-(3,4-Dimethoxyphenyl)ethyl]amino]-8-[(3-methoxy-1H-pyrrol-2-yl)methylene]-3,6,7,8-tetrahydro-pyrrolo[3,2-e]-benzimidazol-7-one] it was under 50%; in that of `COc1ccccc1Nc1nc2c3c(ccc2[nH]1)NC(=O)/C3=C\c1[nH]ccc1OC` [II, (Z)-2-[N-(2-Methoxyphenyl)amino]-8-[(3-methoxy-1H-pyrrol-2-yl)methylene]-3,6,7,8-tetrahydro-pyrrolo[3,2-e]benzimidazol-7-one], under 50%.
On the same count and under the same terms, next, `COc1cc[nH]c1/C=C1\C(=O)Nc2ccc3[nH]c(NCCCCc4ccccc4)nc3c21` [JJ, (Z)-8-[(3-Methoxy-1H-pyrrol-2-yl)methylene]-2-[N-(4-phenylbutyl)amino]-3,6,7,8-tetrahydro-pyrrolo[3,2-e]benzimidazol-7-one]: under 50%; `COc1cc[nH]c1/C=C1\C(=O)Nc2ccc3[nH]c(NCc4ccc5c(c4)OCO5)nc3c21` [VV, (Z)-2-[N-(1,3-Benzodioxol-5-yl)methylamino]-8-[(3-methoxy-1H-pyrrol-2-yl)methylene]-3,6,7,8-tetrahydro-pyrrolo[3,2-e]-benzimidazol-7-one]: under 50%; `COc1cc[nH]c1/C=C1\C(=O)Nc2ccc3[nH]c(NCc4cccc5ccccc45)nc3c21` [WW, (Z)-8-[(3-Methoxy-1H-pyrrol-2-yl)methylene]-2-[N-(1-naphthalenyl)methylamino]-3,6,7,8-tetrahydro-pyrrolo[3,2-e]-benzimidazol-7-one]: under 50%.
With `COc1cc[nH]c1/C=C1\C(=O)Nc2ccc3[nH]c(NCCCc4ccccc4)nc3c21` [XX, (Z)-8-[(3-Methoxy-1H-pyrrol-2-yl)methylene]-2-[N-(3-phenylpropyl)amino]-3,6,7,8-tetrahydro-pyrrolo[3,2-e]benzimidazol-7-one], the inhibition at 0.5 µM was under 50%.
In turn, `COc1ccc(Nc2nc3c4c(ccc3[nH]2)NC(=O)/C4=C\c2[nH]ccc2OC)cc1OC` [Y, (Z)-2-[N-(3,4-Dimethoxyphenyl)amino]-8-[(3-methoxy-1H-pyrrol-2-yl)methylene]-3,6,7,8-tetrahydro-pyrrolo[3,2-e]benzimidazol-7-one] returned an inhibition at 0.5 µM of under 50%.
In turn, `COc1cc[nH]c1/C=C1\C(=O)Nc2ccc3[nH]c(Nc4ccc5c(c4)CCC5)nc3c21` [YY, (Z)-2-[N-(2,3-Dihydro-1H-inden-5-yl)amino]-8-[(3-methoxy-1H-pyrrol-2-yl)methylene]-3,6,7,8-tetrahydro-pyrrolo[3,2-e]-benzimidazol-7-one] registered an inhibition at 0.5 µM of under 50%.
On to `COc1ccc(Nc2nc3c4c(ccc3[nH]2)NC(=O)/C4=C\c2[nH]ccc2OC)cc1` [Z, (Z)-2-[N-(4-Methoxyphenyl)amino]-8-[(3-methoxy-1H-pyrrol-2-yl)methylene]-3,6,7,8-tetrahydro-pyrrolo[3,2-e]benzimidazol-7-one], for which the inhibition at 0.5 µM is under 50%.

The test is the same for the next values; noted with them: recombinant human Cyclin E/CDK2, Rb substrate, 25 minutes at room temperature.
Consider `COc1cc[nH]c1/C=C1\C(=O)Nc2ccc3[nH]c(NC(C)c4ccccc4)nc3c21` (racemic) [HH, rac-(Z)-8-[(3-Methoxy-1H-pyrrol-2-yl)methylene]-2-[N-(1-phenylethyl)amino]-3,6,7,8-tetrahydro-pyrrolo[3,2-e]benzimidazol-7-one], for which the half-inhibitory concentration (IC50) is under 3.5 µM.
On the same count and under the same terms, in the case of `COc1cc[nH]c1/C=C1\C(=O)Nc2ccc3[nH]c(C(O)c4ccccc4)nc3c21` (racemic) [U, rac-(Z)-2-(1-Hydroxy-1-phenyl-methyl)-8-[(3-methoxy-1H-pyrrol-2-yl)methylene]-3,6,7,8-tetrahydro-pyrrolo[3,2-e]benzimidazol-7-one] it was under 3.5 µM; in that of `COc1cc[nH]c1/C=C1\C(=O)Nc2ccc3[nH]c(Nc4ccc(N(C)C)cc4)nc3c21` [DD, (Z)-2-[N-(4-Dimethylaminophenyl)amino]-8-[(3-methoxy-1H-pyrrol-2-yl)methylene]-3,6,7,8-tetrahydro-pyrrolo[3,2-e]-benzimidazol-7-one], under 3.5 µM; in that of `COc1cc[nH]c1/C=C1\C(=O)Nc2ccc3[nH]c(NCC4CCCO4)nc3c21` (centres unmarked) [KK, (Z)-8-[(3-Methoxy-1H-pyrrol-2-yl)methylene]-2-[N-[(2-tetrahydrofuranyl)methyl]-amino]-3,6,7,8-tetrahydro-pyrrolo[3,2-e] benzimidazol-7-one], under 3.5 µM.
Same read-out and setting: in the case of `O=C1Nc2ccc3[nH]c(-c4ccccc4)nc3c2/C1=C/c1ccc[nH]1` [O, (Z)-2-Phenyl-8-[(1H-pyrrol-2-yl)methylene]-3,6,7,8-tetrahydro-pyrrolo[3,2-e]benzimidazol-7-one] it was under 3.5 µM; in that of `Cc1nc[nH]c1/C=C1\C(=O)Nc2ccc([N+](=O)[O-])c(F)c21` [OO, (Z)-1,3-Dihydro-4-fluoro-3-[(4-methyl-1H-imidazol-5-yl)methylene]-5-nitro-2H-indol-2-one], under 3.5 µM; in that of `Cc1nc[nH]c1/C=C1\C(=O)Nc2ccc([N+](=O)[O-])c(N=[N+]=[N-])c21` [PP, (Z)-4-Azido-1,3-dihydro-3-[(4-methyl-1H-imidazol-5-yl)methylene]-5-nitro-2H-indol-2-one], under 3.5 µM.
In the case of `COc1cc[nH]c1/C=C1\C(=O)Nc2ccc3[nH]c(-c4ccccc4)nc3c21` [Q, (Z)-8-[(3-Methoxy-1H-pyrrol-2-yl)methylene]-2-phenyl-3,6,7,8-tatrahydro-pyrrolo[3,2-e]benzimidazol-7-one], the IC50 is under 3.5 µM.
With `Cc1nc[nH]c1/C=C1\C(=O)Nc2ccc([N+](=O)[O-])c(N)c21` [QQ, (Z)-4-Amino-1,3-dihydro-3-[(4-methyl-1H-imidazol-5-yl)methylene]-5-nitro-2H-indol-2-one], the IC50 was under 3.5 µM.
Consider `Cc1nc[nH]c1/C=C1\C(=O)Nc2ccc(N)c(N)c21` [RR, (Z)-4,5-Diamino-1,3-dihydro-3-[(4-methyl-1H-imidazol-5-yl)methylene]-2H-indol-2-one], for which the IC50 is under 3.5 µM.
`COc1cc[nH]c1/C=C1\C(=O)Nc2ccc3[nH]c(-c4ccccc4O)nc3c21` [S, (Z)-2-(2-Hydroxyphenyl)-8-[(3-methoxy-1H-pyrrol-2-yl)methylene]-3,6,7,8-tetrahydro-pyrrolo[3;2-e]benzimidazol-7-one]: the concentration for half-maximal inhibition (IC50) is under 3.5 µM.
On the same count and under the same terms, in the case of `Cc1nc[nH]c1/C=C1\C(=O)Nc2ccc3[nH]cnc3c21` [SS] it was under 3.5 µM; in that of `COc1ccc(Cc2nc3c4c(ccc3[nH]2)NC(=O)/C4=C\c2[nH]ccc2OC)cc1` [T, (Z)-2-[(4-Methoxyphenyl)methyl]-8-[(3-methoxy-1H-pyrrol-2-yl)methylene]-3,6,7,8-tetrahydro-pyrrolo[3,2-e]benzimidazol-7-one], under 3.5 µM; in that of `COc1cc[nH]c1/C=C1\C(=O)Nc2ccc3nc[nH]c3c21` [TT, (Z)-8-[(3-Methoxy-1H-pyrrol-2-yl)methylene]-3,6,7,8-tetrahydro-pyrrolo-[3,2-e]benzimidazol-7-one], under 3.5 µM.
Take `COc1cc[nH]c1/C=C1\C(=O)Nc2ccc3[nH]c(CCc4ccc(O)cc4)nc3c21` [V, (Z)-2-[2-(4-Hydroxyphenyl)ethyl]-8-[(3-methoxy-1H-pyrrol-2-yl)methylene]-3,6,7,8-tetrahydro-pyrrolo[3,2-e]benzimidazol-7-one]: the IC50 was under 3.5 µM.
In the case of `COc1cc[nH]c1/C=C1\C(=O)Nc2ccc3[nH]c(CCCc4ccccc4)nc3c21` [W, (Z)-2-[3-(Phenyl)propyl]-8-[(3-methoxy-1H-pyrrol-2-yl)methylene]-3,6,7,8-tetrahydro-pyrrolo[3,2-e]benzimidazol-7-one], the half-inhibitory concentration (IC50) is under 3.5 µM.
With `COCCCNc1nc2c3c(ccc2[nH]1)NC(=O)/C3=C\c1[nH]ccc1OC` [X, (Z)-2-[N-(3-Methoxypropyl)amino]-8-[(3-methoxy-1H-pyrrol-2-yl)methylene]-3,6,7,8-tetrahydro-pyrrolo[3,2-e]benzimidazol-7-one], the 50% inhibitory concentration (IC50) was under 3.5 µM.

One may read the inhibition as how much of the control response was suppressed. As usually defined, the IC50 is the concentration needed to halve the response being measured.
